# Reference: article PMC12060275, “Biochemical, Structural, and Conformational Characterization of a Fungal Ethylene-Forming Enzyme” (Biochemistry, 2025)
# Assays:
# PK2 EFE [1] = biological target: T1, PK2 EFE (Pseudomonas savastanoi, UniProt P32021); test: succinate production by LC-MS/MS versus 2OG concentration; type: biochemical; design: recombinant from E. coli, His6 tag removed with TEV protease, apoprotein after EDTA/DTT treatment; conditions: no L-Arg (uncoupled decarboxylation), 0.2 mM Fe(II), 0.4 mM L-ascorbate, 25 mM HEPES pH 7.5, 22 °C
# T1 sequence (P32021 whole entry): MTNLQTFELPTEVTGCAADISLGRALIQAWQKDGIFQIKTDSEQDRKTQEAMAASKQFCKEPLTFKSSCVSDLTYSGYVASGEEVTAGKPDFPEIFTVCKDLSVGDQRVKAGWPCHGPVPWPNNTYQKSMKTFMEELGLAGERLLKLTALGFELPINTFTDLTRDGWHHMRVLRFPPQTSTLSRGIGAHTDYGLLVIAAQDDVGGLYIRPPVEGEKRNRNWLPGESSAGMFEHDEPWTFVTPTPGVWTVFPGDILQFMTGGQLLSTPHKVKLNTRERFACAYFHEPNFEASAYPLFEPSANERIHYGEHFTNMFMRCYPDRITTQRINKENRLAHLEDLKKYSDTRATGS
# PK2 EFE [2] = biological target: T1, PK2 EFE; conditions: 1 mM 2OG, 1 mM L-Arg, 0.4 mM Fe(II), 1 mM L-ascorbate, 25 mM HEPES pH 7.5, room temperature
compound,measurement,setting,value
O=C(O)CCC(=O)C(=O)O [2OG],succinate production by LC-MS/MS versus 2OG concentration,PK2 EFE [1],such an uncoupled reaction occurs in both Pd1 and PK2 versions of EFE
N=C(N)NCCC[C@H](N)C(=O)O [L-Arg],ethylene by GC and P5C by 2-aminobenzaldehyde assay (partition ratio),PK2 EFE [2],we compared the ethylene/P5C partition ratios for PK2 EFE and Pd1 EFE
